The values below come from PubChem BioAssay AID179 (DTP/NCI, 2004).

The structures appear in SMILES notation. Active and inactive are the calls of the source.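 The calls were made as follows: active = compounds giving half or more protection of infected cells from virus-caused growth loss, again on retest; inactive = the rest.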 Where a SMILES comes first, the peptide text is derived from it. The star is where a group is joined. Boc = CC(C)(C)OC(=O)*; OBn = c1ccc(CO*)cc1 Where only a bound is given, the exact number is not on record here.

The assay concerns CEM cells HIV-1 protection, formazan growth assay. Kind of assay: NCI AIDS Antiviral Assay. Conditions: for IC50: measured here: growth of uninfected CEM cells. Put shortly: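 Five concentrations of each compound were applied to infected and uninfected human CEM cells. Protection from HIV-1 was judged from growth measured with a soluble formazan assay.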

Consider `CC1(C)OCN(c2ccc(Cl)cc2)Cn2c1nc1ccccc12`, for which the EC50 was more than 200 µM and the IC50 was 28.8 µM.

On to `O=C1/C(=C/c2ccccc2)CCc2ccccc21`, for which the EC50 was more than 200 µM and the IC50 is 11.5 µM.

Turning to `O=S(=O)(O)CCS(=O)(=O)O`, the EC50 was more than 200 µM and the IC50 is more than 200 µM.

Regarding `O=C(O)[C@@H]1CSC(c2cccc(F)c2)N1` (stereo partly specified), the EC50 was more than 200 µM and the IC50 was more than 200 µM.

With `CC(=O)OC1(C#N)CC2OC1C1NC21` (stereo unspecified), the EC50 was more than 676 µM and the IC50 is more than 676 µM.

Turning to `CCOC(=O)CNC(=O)N(CC)C12CC3CC(CC(C3)C1)C2`, the EC50 is more than 200 µM and the IC50 worked out at 129 µM.

In the case of `COc1ccc(/C=C/C(=O)c2ccc(OC(=O)/C=C/c3ccccc3)cc2)cc1`, the EC50 is more than 200 µM and the IC50 worked out at 9.12 µM.

With `Cc1ccc(NC(=O)C2C(=O)N(c3ccc(C)cc3)C(=O)/C2=N\NC(N)=S)cc1` (stereo unspecified), the EC50 was more than 12.6 µM and the IC50 was more than 12.6 µM.

Take `Cc1nc(-[n+]2nc(-c3ccncc3)nn2-c2ccccc2)sc1C`: the EC50 is more than 200 µM and the IC50 amounted to 17 µM.

Turning to `COCn1c(C)c(C)c2c(=O)oc(N(C)C)nc21`, the EC50 was more than 200 µM and the IC50 was 138 µM.

As for `Cc1c2ccccc2c(CSC(=N)N)c2ccccc12`, the EC50 is more than 200 µM and the concentration for half-maximal inhibition (IC50) was found to be 0.112 µM.

For the compound `N#Cc1ccc(Oc2cccc(N)c2)cc1C#N`, the EC50 was more than 214 µM and the IC50 is more than 214 µM.

Regarding `CN(C)CCCNc1c(C#N)[n+]([O-])c2cc(Cl)ccc2[n+]1[O-]`, the EC50 is more than 2 µM and the IC50 came out at 1 µM.

With `Cc1nc2c(nc1C)C(=O)c1ccccc1C2=O`, the EC50 is more than 200 µM and the IC50 amounted to 4.57 µM.

Take `NC(=O)CCC(NC(=O)C(F)(F)F)C(=O)O` (stereo unspecified): the result was inactive.

Consider `Oc1ccc(C(=C(Br)c2ccccc2)c2ccc(O)cc2)cc1`, for which the EC50 is more than 200 µM and the IC50 was found to be 3.98 µM.

For `O=S(=O)(/C=C/C(=C/c1ccccc1)S(=O)(=O)c1ccccc1)c1ccccc1`, the outcome was inactive.

As for `Cc1ccc([S+](c2ccccc2)c2cc(C)ccc2C)cc1` (stereo unspecified), the EC50 is more than 646 µM and the IC50 stood at 1.17 µM.

For `C[n+]1cccc(O)c1`, the result was inactive.

Consider `N#Cc1c(O)c2ccccc2[nH]c1=O`, for which the EC50 was more than 200 µM and the IC50 was more than 200 µM.

For the compound `CC(=O)Oc1c(C)c2c(c3ncccc13)OC(C)C2` (stereo unspecified), the EC50 is more than 200 µM and the IC50 stood at 3.16 µM.

Regarding `CCCCN(CCCC)C(=O)C(=O)CC(=O)c1ccc(Br)cc1`, the outcome was inactive.

Regarding `COC(=O)c1c(N)n[nH]c1N`, the result was inactive.

For the compound `O=C(Nc1ccccc1C(F)(F)F)OCCN1CCNC1=S`, the EC50 is more than 200 µM and the IC50 is more than 200 µM.

With `O=c1nc(-c2ccccc2)scc1-c1ccccc1`, the EC50 is more than 38 µM and the concentration for half-maximal inhibition (IC50) is more than 38 µM.

Take `O=C(COC(=O)c1cccc2c(=O)c3ccccc3[nH]c12)Nc1ccc(S(=O)(=O)Nc2ncccn2)cc1`: the result was inactive.

Take `COc1ccc(/C(=N/O)c2ccccc2-c2nc3ccccc3c(=O)n2-c2ccc(S(=O)(=O)Nc3ccccn3)cc2)cc1C`: the EC50 was more than 100 µM and the 50% inhibitory concentration (IC50) is 63.1 µM.

Take `CSc1c(C(N)=O)c2c(N)ncnc2n1C1OC(CO)C(O)C1O` (stereo unspecified): the EC50 was more than 2 µM and the IC50 came to 1.02 µM.

On to `Cn1c(O)c(N=NC(=O)Cc2c[nH]c3ccccc23)c2ccccc21`, for which the EC50 was more than 200 µM and the half-inhibitory concentration (IC50) is more than 200 µM.

On to `CCSC(=O)n1ncc2cc(Cl)ccc21`, for which the EC50 is more than 200 µM and the IC50 came to 30.2 µM.

In the case of `Cc1ccnc2c1C(=O)C1=C(OC(C)(C)CC1O)C2=O` (stereo unspecified), the EC50 was more than 200 µM and the IC50 amounted to 10.7 µM.

`CO/N=C(\C([O-])=N\[n+]1cnn(CC(=O)OC(C)(C)C)c1)c1csc(NC(c2ccccc2)(c2ccccc2)c2ccccc2)n1`: the EC50 was more than 200 µM and the IC50 was found to be 37.2 µM.

On to `O=C(Cn1c2c(c3ccccc31)CCCC2)N1CCCCC1`, for which the EC50 is more than 200 µM and the IC50 is more than 200 µM.

For the compound `CCOC(=O)c1c(N2CCCC2)ncn(-c2ccccc2)c1=S`, the EC50 is more than 200 µM and the IC50 is more than 200 µM.

Take `C=CCn1c(N)c(C#N)c(C#N)c1CCC`: the EC50 was more than 200 µM and the IC50 was more than 200 µM.

In the case of `COC1(OC)C2(Cl)C(Cl)=C(Cl)C1(Cl)C1C=CC=CC12` (stereo unspecified), the outcome was inactive.

As for `CC(=O)O[C@H]1[C@@H]2[C@@H]3[C@@H](C[C@H]1C)[C@@H](C)CO[C@@]1(C)CC/C=C(/C)C[C@@H]2O[C@@H]31`, the EC50 is more than 100 µM and the IC50 is more than 100 µM.

With `NC(=S)N/N=C(/C(=O)Nc1nc2ccc([N+](=O)[O-])cc2s1)C1C(=O)NC(=S)NC1=O`, the EC50 is more than 15.5 µM and the IC50 was more than 15.5 µM.

For the compound `Cc1cc(C23OC4COC(C)(C)OC4C2OC(C)(C)O3)ncn1` (stereo unspecified), the EC50 was more than 200 µM and the IC50 was more than 200 µM.

Turning to `O=C(c1cccs1)N(C(=O)N1CCCCC1)c1ccccc1`, the EC50 was more than 200 µM and the IC50 turned out to be 112 µM.

Take `CCOC(=O)c1cc(-c2cc(OC)c(OC)c([N+](=O)[O-])c2)c([N+](=O)[O-])n1C`: the EC50 was more than 200 µM and the IC50 was determined as 10.2 µM.

With `O=C(CSc1nnc(Cc2ccccc2)o1)Nc1cccc([N+](=O)[O-])c1`, the EC50 is more than 97.7 µM and the IC50 is more than 97.7 µM.

As for `C1CN(C23OC4(N5CCOCC5)C5C6CC(C7C6C4C72)C53)CCO1` (stereo unspecified), the EC50 was more than 200 µM and the IC50 was more than 200 µM.

Take `O=c1cc(N=Nc2ccc(O)cc2)[nH]c(=O)[nH]1`: the EC50 was more than 200 µM and the IC50 was determined as 11.5 µM.

Turning to `CCC(c1nc2ccccc2c(=O)n1NC(=O)C(C)(C)C)C1(O)CCCCC1` (stereo unspecified), the EC50 is more than 200 µM and the IC50 is 107 µM.

Take `CC(C)(C)OC(=O)N[C@H]1CCN(C2CCCCC2)C1=O`: the EC50 was more than 200 µM and the IC50 was more than 200 µM.

`Cc1c2c(n3c(nc4ccccc43)c1C#N)N(c1ccc(F)cc1)CC2`: the EC50 was more than 200 µM and the 50% inhibitory concentration (IC50) was more than 200 µM.

For `CC(C)C(NC(=O)CNC(=O)C1CCCN1C(=O)C(NC(=O)OC(C)(C)C)C(C)C)C(=O)NCC(=O)OCc1ccccc1` (stereo unspecified) (Boc-VPGVG-OBn; configuration not given here), the EC50 is more than 200 µM and the IC50 was found to be 117 µM.

For the compound `CCN1CCC(O)(/C=C/c2cccc(C)c2)C(C(=O)/C=C/c2cccc(C)c2)C1` (stereo unspecified), the EC50 is more than 200 µM and the IC50 came to 3.55 µM.

For `COc1ccc2[nH]c3c4c(cc(-c5ccccc5)c3c2c1)C(=O)N(c1ccccc1)C4=O`, the EC50 was more than 9.12 µM and the IC50 is more than 9.12 µM.

Take `COc1ccc(C[C@@H]2NC[C@@H](O)[C@@H]2OC(C)=O)cc1`: the EC50 is more than 4.17 µM and the IC50 was 0.017 µM.

`COc1ccc(NCc2cnc3nc(N)nc(N)c3c2C)cc1`: the EC50 was more than 200 µM and the IC50 is 0.437 µM.

`Nc1nc(O)c(N=O)c(=O)[nH]1`: the EC50 is more than 200 µM and the IC50 is more than 200 µM.

With `N#C/C(=C\c1cccc(C#N)c1)C(=O)O`, the EC50 was more than 50.1 µM and the half-inhibitory concentration (IC50) is more than 50.1 µM.

Usually EC50 stands for the concentration at which the effect is half-maximal. The IC50 is the concentration needed to halve the response being measured. A low value points to greater potency in that assay.
